# Laboratory results: patent publication US8466340B2, “Mouse model for pompe disease and methods of use thereof” (Amicus Therapeutics, Inc., priority 2009, dated 2013)
# Counter-ions that a name gives are not always drawn.
# Columns and labels:
# hP545L GAA [1] = target: T1, hP545L GAA (Homo sapiens, UniProt P10253, P545L); experiment: Biochemical assay for determining GAA level in tissues of DNJ-dosed hP545L GAA Tg/KO mice; assay type: in vivo; details: 'Moderate' hP545L GAA Tg/KO mice; DNJ 30, 100, 300 mg/kg/day oral ad libitum in drinking water, 4 weeks; disease-relevant tissues
# Description: (§1) Mice were euthanized with CO2 and body weights were recorded. […] Plasma was collected by spinning blood at 2700 g for 10 minutes at 4° C. Heart, diaphragm, gastrocnemius, soleus, skin, and brain tissues were removed, washed in cold PBS, blotted dry, and weighed before storing on dry ice. For biochemical assays (GAA activity, glycogen and Western blotting), lysates were prepared by homogenizing ˜50 mg tissue for 3-5 seconds on ice with a micro homogenizer in 200 μL Lysis Buffer (25 mM Bis-Tris pH 6.5, 150 mM NaCl, 1% Triton X-100 pH 6.5). For histology assays, tissues were harvested and fixed immediately in 3.7% Formaldehyde/90% Ethanol mix. After fixation, the samples were processed in various grades (10, 20, 50, 75, 100%) of alcohol and embedded in paraffin.
# (§2) The dosing solutions were made fresh each week and water consumption was monitored daily.
# (§3) After dosing was completed, mice were euthanized and plasma samples as well as tissue samples harvested as described above.
# hP545L GAA [2] = target: T1, hP545L GAA; experiment: GAA protein level by Western blotting in tissues of DNJ-dosed hP545L GAA Tg/KO mice; assay type: in vivo; details: 'Moderate' hP545L GAA Tg/KO mice; DNJ 30, 100, 300 mg/kg/day oral, 4 weeks; disease-relevant tissues
# Description: as §1
# Tissue lysates (50 μg total protein per lane) were subjected to SDS-PAGE on 12% gels (Bio-Rad, Hercules, Calif.), transferred to PVDF membranes (Bio-Rad), and immunoblotted with a rabbit anti-human GAA (kind gift of Dr. Barry Byrne) polyclonal antibody (1:500 dilution). Protein bands were detected using peroxidase-conjugated goat anti-rabbit secondary antibodies (1:1000) (Jackson Immunosearch Labs, West Grove, Pa.) in combination with enhanced chemiluminescence (Pierce). […]
# as §2
# hP545L GAA Tg/KO mice = experiment: Biochemical assay for determining glycogen level (amyloglucosidase digestion) in tissues of DNJ-dosed hP545L GAA Tg/KO mice; assay type: in vivo, mouse; details: 'Moderate' hP545L GAA Tg/KO mice
# Description: as §1
# Tissue glycogen levels were measured in supernatants of heat denatured (99° C. for 10 min.) lysates as prepared above for GAA assay. Samples were analyzed in duplicates by adding 4 μL of lysate to 36 μL water with and without 10 μL of 800 units/mL of amyloglucosidase enzyme (Sigma) and incubated for 1 hour at 50° C. The reaction was stopped by heat inactivation at 100° C. for 10 min. Finally 200 μL of glucose reagent was added to estimate the amount of glucose released at 340 nm absorbance on Spectramax. A glycogen standard curve ranging from 400 μg/mL to 5 μg/mL was run each day for conversion of absorbance data to absolute glycogen levels. Data are ultimately expressed as μg of glycogen cleaved/milligram of protein. The protein levels were measured in lysates (before denaturing) using Micro BCA Protein Assay Kit according to the manufacturer's instructions.
# as §2, §3
# Mice were orally dosed (ad libitum in drinking water) either daily or using one of three less-frequent on/off regimens (i.e., (i) 3 days on/4 days off; (ii) 5 days on/2 days off; or (iii) 7 days on/7 days off). […] The dosing solution was made fresh each week and water consumption was monitored daily.
# After dosing was completed, mice were euthanized and tissue samples harvested as described above.
# [3] = test system: mutant forms of GAA in Pompe patient-derived fibroblasts; experiment: Level of mutant GAA in Pompe patient-derived fibroblasts; assay type: cell-based, human; details: data not shown
# [4] = test system: mutant forms of recombinant human GAA in COS-7 cells; experiment: Level of mutant GAA in transiently-transfected COS-7 cells; assay type: cell-based; details: COS-7 cells transiently-transfected with recombinant human GAA; data not shown
# recombinant human GAA = recombinant human GAA (Homo sapiens, UniProt P10253); experiment: Binding to and thermostability of recombinant human GAA in vitro; details: data not shown
# [5] = test system: mutated form of GAA (M519V, P545L, G549R, L552P) in HEK293 cells; experiment: GAA activity, protein and processing in HEK293 cells transiently-transfected with mutated GAA; assay type: cell-based; details: data not shown
# GAA [6] = target: T2, GAA (Mus musculus, UniProt P70699); experiment: GAA activity, protein and processing in mice administered DNJ orally; assay type: in vivo; details: data not shown
# T2 construct: from tissue
# T2 sequence (P70699 70-953): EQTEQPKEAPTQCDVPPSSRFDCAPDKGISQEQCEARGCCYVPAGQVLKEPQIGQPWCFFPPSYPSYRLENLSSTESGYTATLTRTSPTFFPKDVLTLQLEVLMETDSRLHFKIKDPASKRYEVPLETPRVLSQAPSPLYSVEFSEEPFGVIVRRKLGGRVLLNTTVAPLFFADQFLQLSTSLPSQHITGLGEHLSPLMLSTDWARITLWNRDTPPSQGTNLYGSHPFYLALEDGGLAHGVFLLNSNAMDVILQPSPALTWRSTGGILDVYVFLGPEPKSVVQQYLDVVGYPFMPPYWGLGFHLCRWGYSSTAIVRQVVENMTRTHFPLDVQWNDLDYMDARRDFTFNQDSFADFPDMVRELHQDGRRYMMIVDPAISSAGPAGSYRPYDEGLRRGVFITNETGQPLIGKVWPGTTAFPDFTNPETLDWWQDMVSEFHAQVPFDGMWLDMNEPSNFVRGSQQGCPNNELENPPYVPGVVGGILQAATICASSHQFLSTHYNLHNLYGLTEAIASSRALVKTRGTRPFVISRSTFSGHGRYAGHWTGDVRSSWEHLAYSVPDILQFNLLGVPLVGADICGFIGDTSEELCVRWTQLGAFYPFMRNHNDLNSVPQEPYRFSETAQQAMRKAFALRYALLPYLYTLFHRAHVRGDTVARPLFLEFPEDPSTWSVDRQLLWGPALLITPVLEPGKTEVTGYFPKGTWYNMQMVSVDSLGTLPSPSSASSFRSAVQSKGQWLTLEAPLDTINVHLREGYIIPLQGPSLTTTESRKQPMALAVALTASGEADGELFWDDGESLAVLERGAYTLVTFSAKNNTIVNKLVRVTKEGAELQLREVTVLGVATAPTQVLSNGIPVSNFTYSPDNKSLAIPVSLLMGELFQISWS
# GAA [7] = experiment: GAA activity, protein and processing in monkeys administered DNJ orally; assay type: in vivo, cynologous monkeys; details: cynomolgus monkeys, data not shown
# alpha-galactosidase = target: T3, alpha-galactosidase (Mus musculus, UniProt P51569); experiment: Specificity: alpha-galactosidase in mice administered DNJ; assay type: in vivo; details: data not shown
# T3 construct: from tissue
# T3 sequence (P51569 32-419): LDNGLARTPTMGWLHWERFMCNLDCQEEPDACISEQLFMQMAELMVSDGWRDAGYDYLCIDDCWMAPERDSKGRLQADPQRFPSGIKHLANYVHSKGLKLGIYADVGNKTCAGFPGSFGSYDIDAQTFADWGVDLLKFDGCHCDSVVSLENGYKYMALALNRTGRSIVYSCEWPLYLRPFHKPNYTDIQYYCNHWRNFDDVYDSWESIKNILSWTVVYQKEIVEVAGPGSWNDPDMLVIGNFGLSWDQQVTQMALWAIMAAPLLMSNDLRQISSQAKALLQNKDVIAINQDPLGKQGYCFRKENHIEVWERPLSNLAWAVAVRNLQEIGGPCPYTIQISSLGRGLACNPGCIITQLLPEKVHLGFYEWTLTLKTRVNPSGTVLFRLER
# [8] = target: human GAA missense mutations (Homo sapiens, UniProt P10253, P545L); experiment: In vitro studies to identify a human GAA missense mutation responsive to DNJ; assay type: cell-based; details: 5-day incubation with DNJ, data not shown
# [9] = test system: human GAA missense mutations; experiment: as above; assay type: cell-based; details: data not shown
# Half-life of DNJ = details: stated within a theory on/off dosing, compared to GAA (days); no method
# [10] = DNJ 30, 100, 300 mg/kg/day oral, 4 weeks
compound,measurement,setting,value
"OC[C@H]1NC[C@H](O)[C@@H](O)[C@@H]1O [DNJ, 1-deoxynojirimycin-HCl]",GAA levels (tissue GAA activity),hP545L GAA [1],significant and dose-dependent increase
same,GAA protein levels,hP545L GAA [2],significant and dose-dependent increase
same,processing of GAA protein to its 76 kDa mature form,hP545L GAA [2],significant and dose-dependent increase
same,"glycogen reduction, on/off regimens compared to daily dosing","hP545L GAA Tg/KO mice; 100 mg/kg/day oral, 4 weeks, p<0.05 daily vs. on/off",greater glycogen reduction
same,glycogen levels in disease-relevant tissue,"hP545L GAA Tg/KO mice; 100 mg/kg/day oral, daily or on/off (3/4, 5/2, 7/7 days), 4 weeks, majority of tissues examined, p<0.05 vs. untreated",significant reduction
same,glycogen levels of brain,hP545L GAA Tg/KO mice; [10],robust reduction
same,glycogen levels of diaphragm,hP545L GAA Tg/KO mice; [10],moderate reduction
same,glycogen levels of gastrocnemius,hP545L GAA Tg/KO mice; [10],moderate reduction
same,glycogen levels of heart,hP545L GAA Tg/KO mice; [10],moderate reduction
same,glycogen levels of skin,hP545L GAA Tg/KO mice; [10],robust reduction
same,glycogen levels of soleus,hP545L GAA Tg/KO mice; [10],robust reduction
same,tissue glycogen levels,"hP545L GAA Tg/KO mice; four-week oral administration (ad libitum), tissues overall",decrease
same,level of multiple different mutant forms of GAA,[3],significantly increase
same,level of multiple different mutant forms of GAA,[4],significantly increase
same,binding to GAA,recombinant human GAA,directly bind
same,thermostability of recombinant human GAA,recombinant human GAA,concentration-dependent increase
same,"GAA processing to the 95-, 76-, and 70-kDa forms",[5],increase
same,GAA protein levels,[5],increase
same,level of GAA activity,[5],increase
same,GAA protein levels,GAA [6],increased
same,processing to the 70-kDa mature form of GAA,GAA [6],increased
same,GAA activity,GAA [6]; oral,increase in a dose-dependent manner
same,GAA activity,GAA [7]; oral,increase in a dose-dependent manner
same,GAA protein levels,GAA [7],increased
same,processing to the 70-kDa mature form of GAA,GAA [7],increased
same,alpha-galactosidase activity,alpha-galactosidase,no increase
same,"GAA activity, P545L mutation",[8],"robust, reproducible, dose-dependent and statistically-significant increase"
same,"responsiveness of P285R, E262K, E579K GAA mutations to DNJ",[9],even more responsive than P545L
same,half-life of DNJ,Half-life of DNJ,hours
